In ChEMBL document CHEMBL6114970, “Development of carbazole-based molecules for inhibition of mutant hSOD1 protein aggregation in Amyotrophic Lateral Sclerosis” (Bioorg Med Chem, 2025):
One block for each molecule: values may come before it. The source made the active and inactive calls. No cut-off for these calls is given here.

Columns and labels:
Homo sapiens [1] = species: Homo sapiens; experiment: Inhibition of TCEP-treated human SOD1 G85R mutant aggregation at 50 uM measured after 24 hrs by thioflavin-T fluorescence assay relative to control
Homo sapiens [2] = species: Homo sapiens; experiment: Inhibition of TCEP-treated human SOD1 G93A mutant aggregation at 50 uM measured after 24 hrs by thioflavin-T fluorescence assay relative to control
Homo sapiens [3] = species: Homo sapiens; experiment: Inhibition of TCEP-treated human SOD1 A4V mutant aggregation at 50 uM measured after 24 hrs by thioflavin-T fluorescence assay relative to control
Homo sapiens [4] = species: Homo sapiens; experiment: Inhibition of TCEP-treated human SOD1 A4V mutant aggregation assessed as formation of few slender fibrils at 50 uM measured after 24 hrs by 1% uranyl acetate staining based transmission electron microscopy
N2a [5] = experiment: Protection against MG132-induced SOD1 aggregation-associated apoptosis in mouse Neuro2a cells over expressing hSOD1 G85R mutant assessed as upregulation of Bcl-2 expression preincubated for 24 hrs followed by MG132 addition and measured after 24 hrs by Western blot analysis; type: functional, cell-based; conditions: time 48.0 hrs
N2a [6] = experiment: (§1) Protection against MG132-induced SOD1 aggregation-associated apoptosis in mouse Neuro2a cells over expressing hSOD1 G85R mutant assessed as early apoptotic cells preincubated for 24 hrs followed by MG132 addition and measured after 24 hrs by Annexin V-APC/propidium iodide staining based flow cytometry (reference value: 1.41 %); type: functional; conditions: time 48 hrs
Homo sapiens [7] = species: Homo sapiens; experiment: Inhibition of TCEP-treated human SOD1 G85R mutant aggregation assessed as formation of few slender fibrils at 50 uM measured after 24 hrs by 1% uranyl acetate staining based transmission electron microscopy
N2a [8] = experiment: as §1, with “late” for “early”, “20.93 to 23.01” for “1.41”; type: functional; conditions: time 48 hrs
N2a [9] = experiment: Protection against MG132-induced SOD1 aggregation-associated oxidative stress in mouse Neuro2a cells over expressing hSOD1 G85R mutant assessed as reduction in ROS level at 10 uM preincubated for 24 hrs followed by MG132 addition and measured after 24 hrs by H2DCFDA dye based flow cytometry; type: functional, cell-based; conditions: time 48.0 hrs
N2a [10] = experiment: as §1, with “necrotic” for “early apoptotic”, “2.23” for “1.41”; type: functional; conditions: time 48 hrs
N2a [11] = experiment: Protection against MG132-induced SOD1 aggregation-associated cytotoxicity in mouse Neuro2a cells over expressing hSOD1 G85R mutant assessed as restoration of normal morphology by phase contrast microscopy; type: functional, cell-based
Homo sapiens [12] = species: Homo sapiens; experiment: Inhibition of TCEP-treated human SOD1 G93A mutant aggregation assessed as size of protein at 50 uM measured after 24 hrs at 37 deg C by dynamic light scattering analysis (reference value: 84.38 nm)
Homo sapiens [13] = species: Homo sapiens; experiment: (§2) Inhibition of TCEP-treated human SOD1 A4V mutant aggregation measured after 24 hrs by thioflavin-T fluorescence assay
[14] = as §2
N2a [15] = experiment: Protection against MG132-induced SOD1 aggregation-associated apoptosis in mouse Neuro2a cells over expressing hSOD1 G85R mutant assessed as upregulation of Xiap expression preincubated for 24 hrs followed by MG132 addition and measured after 24 hrs by Western blot analysis; type: functional, cell-based; conditions: time 48.0 hrs
N2a [16] = experiment: Cytotoxicity against mouse Neuro2a cells over expressing hSOD1 G85R mutant assessed as reduction in cell viability up to 10 uM measured after 48 hrs by MTT assay; type: toxicity, cell-based
N2a [17] = experiment: Cytotoxicity against mouse Neuro2a cells over expressing hSOD1 G85R mutant assessed as reduction in cell viability at 25 uM measured after 48 hrs by MTT assay; type: toxicity, cell-based
Homo sapiens [18] = species: Homo sapiens; experiment: (§3) Inhibition of TCEP-treated human SOD1 G93A mutant aggregation measured after 24 hrs by thioflavin-T fluorescence assay
[19] = as §3
N2a [20] = experiment: Protection against MG132-induced SOD1 aggregation-associated cytotoxicity in mouse Neuro2a cells over expressing hSOD1 G85R mutant assessed as restoration of cell viability by phase contrast microscopy; type: functional, cell-based
Homo sapiens [21] = species: Homo sapiens; experiment: Inhibition of TCEP-treated human SOD1 G85R mutant aggregation assessed as size of protein at 50 uM measured after 24 hrs at 37 deg C by dynamic light scattering analysis (reference value: 151.1 nm)
N2a [22] = experiment: Protection against MG132-induced SOD1 aggregation-associated cytotoxicity in mouse Neuro2a cells over expressing hSOD1 G85R mutant assessed as increase in cell viability at 1 uM preincubated for 24 hrs followed by MG132 addition and measured after 24 hrs by MTT assay; type: functional, cell-based; conditions: time 48.0 hrs
Homo sapiens [23] = species: Homo sapiens; experiment: Inhibition of TCEP-treated human SOD1 G93A mutant aggregation assessed as formation of few slender fibrils at 50 uM measured after 24 hrs by 1% uranyl acetate staining based transmission electron microscopy
Homo sapiens [24] = species: Homo sapiens; experiment: (§4) Inhibition of TCEP-treated human SOD1 G85R mutant aggregation measured after 24 hrs by thioflavin-T fluorescence assay
[25] = as §4
Homo sapiens [26] = species: Homo sapiens; experiment: Inhibition of TCEP-treated human SOD1 A4V mutant aggregation assessed as size of protein at 50 uM measured after 24 hrs at 37 deg C by dynamic light scattering analysis (reference value: 154.4 nm)
N2a [27] = experiment: Protection against MG132-induced SOD1 aggregation-associated cytotoxicity in mouse Neuro2a cells over expressing hSOD1 G85R mutant assessed as cell viability at 5 to 10 uM preincubated for 24 hrs followed by MG132 addition and measured after 24 hrs by MTT assay (reference value: 45%); type: functional; conditions: dose 5-10 µM, time 48 hrs

SMILES: CCn1c2ccccc2c2cc(NC(=O)NNC(=O)NCc3ccccc3)ccc21
inhibition (Homo sapiens [1]): 70.7%
inhibition (Homo sapiens [2]): 25.1%
inhibition (Homo sapiens [3]): 31.9%

SMILES: CCn1c2ccccc2c2cc(NC(=O)NNC(=O)Nc3ccc(OC)cc3)ccc21
inhibition (Homo sapiens [1]): 38.2%
inhibition (Homo sapiens [2]): 61.8%
inhibition (Homo sapiens [3]): 40.6%

SMILES: CCn1c2ccccc2c2cc(NC(=O)NNC(=S)Nc3ccc(OC)cc3)ccc21
inhibition (Homo sapiens [1]): 70.6%
inhibition (Homo sapiens [2]): 72.5%
inhibition (Homo sapiens [3]): 58.8%

SMILES: CCn1c2ccccc2c2cc(NC(=O)NNC(=O)Nc3ccc([N+](=O)[O-])cc3)ccc21
inhibition (Homo sapiens [1]): 43.1%
inhibition (Homo sapiens [2]): 48.2%
inhibition (Homo sapiens [3]): 55.3%

SMILES: COc1cc(/C=C/C(=O)CC(=O)/C=C/c2ccc(O)c(OC)c2)ccc1O [CURCUMIN]
inhibition (Homo sapiens [4]): Active
Activity (N2a [5]): Active
Activity (N2a [6]): 0.97%
inhibition (Homo sapiens [7]): Active
Activity (N2a [8]): 8.19%
Activity (N2a [9]): Active; Significant Effect Observed
Activity (N2a [10]): 2.58%
Activity (N2a [11]): Active
Activity (Homo sapiens [12]): 31.7 nm
inhibition (Homo sapiens [13]): Dose-dependent-effect
IC50 [14]: 40.9 µM
Activity (N2a [15]): Active
Activity (N2a [16]): Non-toxic
Activity (N2a [17]): Toxic
inhibition (Homo sapiens [18]): Dose-dependent-effect
IC50 [19]: 32.3 µM
Activity (N2a [20]): Active
Activity (Homo sapiens [21]): 40.2 nm
inhibition (Homo sapiens [1]): 42.8%
Activity (N2a [22]): inactive
inhibition (Homo sapiens [23]): Active
inhibition (Homo sapiens [24]): Dose-dependent-effect
IC50 [25]: 64.1 µM
inhibition (Homo sapiens [3]): 58.7%
Activity (Homo sapiens [26]): 52.1 nm
Activity (N2a [27]): 60%

SMILES: CCn1c2ccccc2c2cc(NC(=O)NNC(=O)Nc3ccccc3)ccc21
inhibition (Homo sapiens [1]): 65.9%
inhibition (Homo sapiens [2]): 63.4%
inhibition (Homo sapiens [3]): 46.9%

SMILES: CCn1c2ccccc2c2cc(NC(=O)NNC(=S)Nc3ccccc3)ccc21
inhibition (Homo sapiens [4]): Active; Displayed Better Reduction In Aggregate Formation Than Curcumin
Activity (N2a [5]): Active
Activity (N2a [6]): 1.04%
inhibition (Homo sapiens [7]): Active; Displayed Better Reduction In Aggregate Formation Than Curcumin
Activity (N2a [8]): 8.26%
Activity (N2a [9]): Active; Significant Effect Observed
Activity (N2a [10]): 2.64%
Activity (N2a [11]): Active
Activity (Homo sapiens [12]): 25.2 nm
inhibition (Homo sapiens [13]): Dose-dependent-effect
IC50 [14]: 32.4 µM
Activity (N2a [15]): Active
Activity (N2a [16]): Non-toxic
Activity (N2a [17]): Toxic
inhibition (Homo sapiens [18]): Dose-dependent-effect
IC50 [19]: 26 µM
Activity (N2a [20]): Active
Activity (Homo sapiens [21]): 36.3 nm
inhibition (Homo sapiens [1]): 74.8%
Activity (N2a [22]): inactive
inhibition (Homo sapiens [2]): 88.3%
inhibition (Homo sapiens [23]): Active; Displayed Better Reduction In Aggregate Formation Than Curcumin
inhibition (Homo sapiens [24]): Dose-dependent-effect
IC50 [25]: 31.3 µM
inhibition (Homo sapiens [3]): 71.3%
Activity (Homo sapiens [26]): 44.6 nm
Activity (N2a [27]): 60%

SMILES: CCn1c2ccccc2c2cc(NC(=O)NNC(=S)Nc3ccc(Cl)cc3)ccc21
inhibition (Homo sapiens [1]): 58.3%
inhibition (Homo sapiens [2]): 76.4%
inhibition (Homo sapiens [3]): 61.1%

SMILES: CCn1c2ccccc2c2cc(NC(=O)NNC(=S)Nc3ccc([N+](=O)[O-])cc3)ccc21
inhibition (Homo sapiens [1]): 64.4%
inhibition (Homo sapiens [2]): 72.6%
inhibition (Homo sapiens [3]): 60%

SMILES: CCn1c2ccccc2c2cc(NC(=O)NNC(=O)Nc3ccc(OC(F)(F)F)cc3)ccc21
inhibition (Homo sapiens [1]): 63.8%
inhibition (Homo sapiens [2]): 73.8%
inhibition (Homo sapiens [3]): 47.1%

SMILES: CCn1c2ccccc2c2cc(NC(=O)NNC(=S)NCc3ccccc3)ccc21
inhibition (Homo sapiens [1]): 56.4%
inhibition (Homo sapiens [2]): 69.8%
inhibition (Homo sapiens [3]): 54.2%

SMILES: CCn1c2ccccc2c2cc(NC(=O)NNC(=O)Nc3ccc(Cl)cc3)ccc21
inhibition (Homo sapiens [1]): 63.3%
inhibition (Homo sapiens [2]): 33.9%
inhibition (Homo sapiens [3]): 59.3%

Continued, in another order:

inhibition (Homo sapiens [1]): inactive
inhibition (Homo sapiens [2]): inactive
inhibition (Homo sapiens [3]): 9.88%
SMILES: Nc1nc2ccc(OC(F)(F)F)cc2s1

inhibition (Homo sapiens [1]): 66.1%
inhibition (Homo sapiens [2]): 65.4%
inhibition (Homo sapiens [3]): 68.5%
SMILES: CCn1c2ccccc2c2cc(NC(=O)NNC(=S)NCCc3ccccc3)ccc21

Activity (Homo sapiens [12]): 21.7 nm
inhibition (Homo sapiens [13]): Dose-dependent-effect
IC50 [14]: 28.1 µM
inhibition (Homo sapiens [18]): Dose-dependent-effect
IC50 [19]: 29.1 µM
Activity (Homo sapiens [21]): 26.4 nm
inhibition (Homo sapiens [1]): 76.8%
inhibition (Homo sapiens [2]): 80.7%
inhibition (Homo sapiens [24]): Dose-dependent-effect
IC50 [25]: 23.4 µM
inhibition (Homo sapiens [3]): 76.2%
Activity (Homo sapiens [26]): 27.7 nm
SMILES: CCn1c2ccccc2c2cc(NC(=O)NNC(=S)Nc3ccc(F)cc3)ccc21
inhibition (Homo sapiens [4]): Active; Displayed Better Reduction In Aggregate Formation Than Curcumin
Activity (N2a [5]): Active
Activity (N2a [6]): 1.19%
inhibition (Homo sapiens [7]): Active; Displayed Better Reduction In Aggregate Formation Than Curcumin
Activity (N2a [8]): 5.52%
Activity (N2a [9]): Active; Showed Better Reduction Compared To Curcumin
Activity (N2a [10]): 2.13%
Activity (N2a [11]): Active
Activity (N2a [15]): Active
Activity (N2a [16]): Non-toxic
Activity (N2a [17]): Toxic
Activity (N2a [20]): Active
Activity (N2a [22]): inactive
inhibition (Homo sapiens [23]): Active; Displayed Better Reduction In Aggregate Formation Than Curcumin
Activity (N2a [27]): 60%

inhibition (Homo sapiens [1]): 63.2%
inhibition (Homo sapiens [2]): 72.3%
inhibition (Homo sapiens [3]): 69.7%
SMILES: CCn1c2ccccc2c2cc(NC(=O)NNC(=S)Nc3ccc(OC(F)(F)F)cc3)ccc21

inhibition (Homo sapiens [1]): 43.4%
inhibition (Homo sapiens [2]): 71.9%
inhibition (Homo sapiens [3]): 46.1%
SMILES: CCn1c2ccccc2c2cc(NC(=O)NNC(=O)Nc3ccc(F)cc3)ccc21

inhibition (Homo sapiens [1]): 70%
inhibition (Homo sapiens [2]): 44.5%
inhibition (Homo sapiens [3]): 62.8%
SMILES: CCn1c2ccccc2c2cc(NC(=O)NNC(=O)NCCc3ccccc3)ccc21
